Reference: PMC11432763, “Machine Learning-Driven Discovery and Evaluation of Antimicrobial Peptides from Crassostrea gigas Mucus Proteome” (Marine Drugs, 2024)
Where a SMILES comes first, the peptide text is derived from it.

Test system: HEK293T cells
Assay: Cytotoxicity assay (CCK-8)
Type: cell-based
Conditions: 24 h; for Cytotoxicity at 50 μM (in words): CCK-8, n = 5, compared with 0 μM; for Cytotoxicity within the concentration range detected (in words): peptide 1-50 μM, CCK-8, OD450, n = 5
Procedure: HEK293T cells were cultured in DMEM (10% FBS, 1% penicillin–streptomycin solution) in a 37 °C, 5% CO2 cell culture incubator until reaching the logarithmic growth phasein. As previously described, cells were seeded into a 96-well plate at 100 μL per well and pre-incubated for 48 h. After removing the medium, 10 μL of antimicrobial peptide solutions (1, 2, 5, 10, 20, and 50 μM) were added to each well with five replicate wells per concentration. The HEK293T cells cultured with DMEM (0 μM peptide) constituted the untreated group and plates with no cells were as blank group. Plates were then cultured for 24 h. Subsequently, 10 μL of CCK-8 solution was added to each well and incubated for 3 h under the same conditions using the Cell Counting Kit-8 (CCK-8, K1018, APE×BIO, Technology LLC, Houston, TX, USA). Absorbance at 450 nm was measured using a microplate reader. Cell viability was calculated using the following formula: Cell viability (%) = [Treated group OD (450) − Blank group OD (450)]/[Untreated group OD (450) − Blank group OD (450)] × 100%.

Row | Compound | Cytotoxicity at 50 μM (in words) | Cytotoxicity within the concentration range detected (in words) | other results
1 | CC[C@H](C)[C@H](NC(=O)[C@H](CCCCN)NC(=O)[C@H](Cc1ccc(O)cc1)NC(=O)[C@H](CCCCN)NC(=O)[C@H](CCCCN)NC(=O)[C@H](Cc1ccccc1)NC(=O)[C@H](CCCNC(=N)N)NC(=O)[C@H](CC(N)=O)NC(=O)[C@H](CCSC)NC(=O)[C@@H](NC(=O)[C@H](CC(C)C)NC(=O)[C@H](Cc1ccc(O)cc1)NC(=O)[C@@H](NC(=O)[C@H](C)NC(=O)[C@H](CCCNC(=N)N)NC(=O)[C@H](CCSC)NC(=O)[C@H](CCCCN)NC(=O)[C@H](CCCCN)NC(=O)[C@H](C)NC(=O)[C@H](CCCNC(=N)N)NC(=O)[C@H](CCCNC(=N)N)NC(=O)[C@@H](N)CCCNC(=N)N)[C@@H](C)CC)[C@@H](C)CC)C(=O)O [P4] (H-RRRAKKMRAIYLIMNRFKKYKI-OH; N-terminus and C-terminus assumed) | significant cell death |  | 
2 | CC(C)C[C@H](NC(=O)[C@@H](N)CC(C)C)C(=O)N[C@@H](CCCNC(=N)N)C(=O)N[C@@H](CCCNC(=N)N)C(=O)N[C@@H](CCCCN)C(=O)N[C@@H](Cc1ccccc1)C(=O)N[C@@H](Cc1ccccc1)C(=O)N[C@@H](Cc1ccccc1)C(=O)O [S2] (H-LLRRKFFF-OH; N-terminus and C-terminus assumed) |  |  | Cytotoxicity at 10 μM (in words) (10 μM, CCK-8, n = 5): significant cytotoxic effects; Cell viability (at 10, 20 and 50 μM, CCK-8, n = 5): ≤ 75%
3 | FAKLLLRLPALR [P1, peptide … derived from Crassostrea gigas mucous proteins, selected by machine learning] |  | no cytotoxicity | 
4 | KVWQRVKVKML [P3, peptide … derived from Crassostrea gigas mucous proteins, selected by machine learning] |  | no cytotoxicity | 
5 | LLFRRRLL [S1] | significant cell death |  | 
6 | WKQIKFYVYNRILKKRK [P2, peptide … derived from Crassostrea gigas mucous proteins, selected by machine learning] | significant cell death |  | 
